# Experimental data published in a melting point compilation (Tetko et al.; mined from patent text by program, amines drawn as free bases though some values may be those of a salt).
row,SMILES,melting point
1,COc1ccc(Cc2ncc[nH]2)cc1,158 to 160 °C
2,CCCCCNS(=O)(=O)NC(=O)/C=C/c1ccc(OCCOC)cc1Oc1ncc(C(F)(F)F)cc1Cl,120 to 122 °C
3,COc1ccc(C2=NN(c3cccc(C(=O)N4CCOCC4)c3)C(=O)C(C)(C)C2)cc1OC,108 to 109 °C
4,O=Cc1cc(Cl)ccc1OC/C=C/CCl,62 to 63 °C
5,Cc1ccc2[nH]c(-c3ccccc3)c(CCN3CCCCC3)c2c1,163 to 164 °C
6,N#Cc1cnc2ccc(-n3cccc3C=O)cc2c1Nc1cccc(Br)c1,94 to 95 °C
7,COc1ccc(O)cn1,80 to 82 °C
8,CCn1cc(C(=O)O)c(=O)c2cc(F)c(-c3csc(CNC)n3)c(O)c21,242 to 246 °C
9,CCCCCCCCCCCC(=O)OC1C(C)C(c2ccccc2)N(O)C(c2ccccc2)C1C (stereo not drawn),108 to 112 °C
10,CSc1ccc(C=CC(=O)c2ccc(O)cc2)cc1,171 °C
11,CCCCCCCCCCCCCCCCNS(=O)(=O)c1ccc(Cl)c([N+](=O)[O-])c1,91 to 93 °C
12,O=C1c2ccccc2C(=O)c2sc(-c3ccccc3F)nc21,> 260 °C
13,N#CC(C#N)C(=O)c1ccsc1,132 to 133 °C
14,CC(C)c1ccc(S(=O)(=O)n2c(Cc3ccc(C(=O)O)cc3)cc3cc(Cl)ccc32)cc1,192 °C
15,CS(=O)(=O)c1ccc(C(CC2CCCC2)C(=O)Nc2ccccn2)cc1[N+](=O)[O-] (stereo not drawn),92 to 95 °C
16,CN1CCN(c2cc(Cl)cc3c2c(=O)n(-c2ccccc2)c(=O)n3Cc2ccccc2)CC1,111 to 119 °C
17,Cc1cc(C2CC2)nc(NN)n1,98 to 99 °C
18,CCO/C=C/C(=O)Nc1ccc(Br)cc1C,163 to 164 °C
19,Cc1cc(-c2nc3cccnn3c2-c2ccnc(NC(=O)NCCS(C)(=O)=O)c2)ccc1F,204 to 205 °C
20,Cc1cnc2n(c1=O)CCC2,82 °C
21,O=c1[nH]c2c(Cl)c(Cl)ccc2s1,229 °C
22,Cc1ccc2nc(-c3cccnc3N)n(-c3ccc(CC(=O)c4ccccc4)cc3)c2n1,194 to 196 °C
23,CC1C(=O)Oc2c(Oc3ccccc3F)cccc21 (stereo not drawn),70 to 71.5 °C
24,CCOC(=S)c1cnc(C)nc1NC(=O)Nc1ccccc1Cl,172 to 173 °C
25,CCCC(=O)C1C(=O)CC(c2ccc(C)cc2)CC1=O (stereo not drawn),76 to 78 °C
26,O=C(NC(c1ccccc1)(c1ccccc1)c1ccccc1)c1ccccc1,200 to 202 °C

row,SMILES,melting point
1,Cn1nc(-c2cnc3[nH]cc(C(=O)NC4CCCC4)c3n2)c2ccc(Cl)cc21,341 to 343 °C
2,CCCCCCCCC(=O)N(C)Cc1ccc(C(=O)O)cc1,79.5 to 81 °C
3,Cc1cc([N+](=O)[O-])c(Cl)cc1Cl,40 to 44 °C
4,COc1ccc(OC)c2c1COC2O (stereo not drawn),156 to 158 °C
5,CCc1c(Oc2ccc([N+](=O)[O-])cc2C(F)(F)F)nn(C(=O)NC)c1C,96 to 97 °C
6,O=c1c(NCCCOc2cccc(CN3CCCCC3)c2)c(NCc2cccnc2)c1=O,174 to 178 °C
7,NC(=O)N(O)CCNC(=O)c1cccc(Oc2ccc(Cl)c(Cl)c2)c1,153 to 156 °C
8,CNc1nc(-c2cccc(NC(=O)c3ccnc(Cl)c3)c2)c2cc(OC)c(OC)cc2n1,151 to 153 °C
9,C1=Cc2ccccc2SS1,82 to 83 °C
10,NC(=O)NC(=O)c1coc2ccccc2c1=O,200 to 217 °C
11,COc1ncc(C=C2SC(=S)N(CC(=O)O)C2=O)cc1-c1cc2c(cc1C)C(C)(C)CCC2(C)C,253 to 255 °C
12,NC(=O)CNc1c(F)cc([N+](=O)[O-])cc1F,160 to 162 °C
13,CC(C)[C@H](NC(=O)OCc1ccccn1)C(=O)N[C@@H](Cc1ccccc1)C[C@H](O)[C@H](Cc1ccccc1)NC(=O)OCc1cncs1,166 to 168 °C
14,CC(C)(Cc1cc([N+](=O)[O-])c(F)cc1Cl)C(=O)O,102 to 104 °C
15,CCc1nc2c(N)nc3ccccc3c2n1CCCCNC(=O)Nc1ccccc1,180 to 181 °C
16,COc1ccnc(CSc2nc3cc(-n4ccnc4)c(F)cc3[nH]2)c1,86 to 87 °C
17,Cc1ccc(F)c(C2CC(=O)c3c(C)ccnc3C2)c1 (stereo not drawn),92 to 94 °C
18,COC(=O)CCn1cc(Cc2cccnc2)c2cc(CCC(=O)O)ccc21,108 to 110 °C
19,CN(C)C(=O)c1cn(C)c(=O)cc1Nc1ccc(I)cc1F,106 to 111 °C
20,CC(C)(C)[Si](C)(C)OCc1cccc(-c2ccc3nc(Cl)cn3c2)c1,120 to 123 °C
21,O=C(c1ccco1)c1cc([N+](=O)[O-])ccc1Cl,93 to 96 °C
22,COc1cc2c(c3c1OC(C)(C)C3)C(c1cccc(N(C(C)=O)c3cccnc3)c1)=NC(C)(C)C2,157 to 158 °C
23,Cc1ccc2c(c1)CCC2=NNC(=N)N,> 275 °C
24,O=[N+]([O-])C=C1CCCN1C1=CC(CF)(CF)Oc2ccc(C(F)(F)C(F)(F)F)cc21,195 to 197 °C
25,Cc1ccc(S(=O)(=O)Nc2ccccc2C#N)cc1,134 to 136 °C
26,CCN(Cc1cccs1)C(=O)C12CC3CC(CC(C3)C1)C2,103 to 105 °C

row,SMILES,melting point
1,COc1ccc(CNC(=NC#N)Nc2ccc(C3=NNC(=O)CC3C)cc2)cc1 (stereo not drawn),231 to 233 °C
2,CS(=O)c1ccc2nc(C(F)(F)F)nc(Cl)c2c1 (stereo not drawn),105 to 107 °C
3,CNS(=O)(=O)c1csc(C(=O)OC)c1,142 °C
4,O=C1CC2CC(O)(c3ccccc3)CC2C1 (stereo not drawn),158 to 159 °C
5,O=C(O)c1c(O)ccc2ccccc12,218 °C
6,CC(=O)Nc1ccc(C(=O)Nc2c(C)cccc2C)cc1,293 to 295 °C
7,CCOC(=O)COc1ccc(OCc2ccccc2)cc1C(Nc1ccc(C(=N)NC(=O)OC(C)(C)C)cc1)C(=O)OCC (racemic),258 °C
8,COc1ccc(C(=CC#N)c2cccc(N)c2)cc1OC,100 to 101 °C
9,N#CC(C(=O)O)=C1Nc2ccccc2O1,185 to 187 °C
10,CCOC(=O)C1=C(C)NN=C(C(=O)OC)C1c1ccc([N+](=O)[O-])cc1 (stereo not drawn),205 to 206 °C
11,N#Cc1ccccc1Cn1cc(-c2ccnc(Cl)c2)n(-c2ccc(F)cc2)c1=O,109 °C
12,Cc1ccc(-c2nc(C(F)(F)F)nc(Cl)c2-c2ccccc2)cc1,97 to 100 °C
13,COc1cc(C(=O)O)c(N)cc1C,193 to 196 °C
14,CC1(C)OC(=C(C#N)C#N)C(C#N)=C1c1ccc(C2CCCCCN2)s1 (stereo not drawn),264 °C
15,CCN1C(=O)CCCc2cc(Nc3ncc(Cl)c(Nc4c(F)cccc4C(=O)NC)n3)c(OC)cc21,254 to 256 °C
16,CCc1nc2nc3cc(Cl)ccc3nc2n1C(=O)c1ccccc1Br,130 to 132 °C
17,O=C(O)CCCNC(=O)c1ccc(NC(=O)c2ccccc2O)cc1,211 to 213 °C
18,O=c1ncc(Cl)cn1Cn1cc(Cl)cnc1=O,260 °C
19,CCCOc1ccc(CO)nc1OCc1ccccc1,50 to 51 °C
20,Oc1ccc(Oc2cccc(Cl)n2)cc1,125 to 130 °C
21,CCOC(=O)c1cn(CC)c2nc(N3CCN(c4ccccc4)CC3)ncc2c1=O,186 °C
22,C=CC(C)OC(=O)c1c(C)nc2c(cnn2CCCCC)c1N (stereo not drawn),64.6 to 67.2 °C
23,CCOC(=O)c1c(C(C)C)nc2onc(C)c2c1-c1ccc(F)cc1,90 to 110 °C
24,N=C1NN(c2ccccc2)CC1CN1CCOCC1 (stereo not drawn),204 to 205 °C
25,COc1cc(OC)nc(Oc2cccc3c2C(=O)OC3SC#N)n1 (stereo not drawn),161 to 163 °C
26,CC(=O)CC(=O)C=Cc1ccc2[nH]ccc2c1,136 to 137 °C

row,SMILES,melting point
1,CCOC(=O)c1cnn(-c2cc(C)cc(C)c2)c1N,113 to 114 °C
2,COCc1oc(C)cc(=O)c1OCc1ccccc1,30 to 32 °C
3,CNC(=O)ON=C(Nc1ccc(C(F)(F)F)cc1)C1=NN(c2ccc(Cl)cc2)C(c2ccc(F)cc2)C1 (stereo not drawn),75 to 77 °C
4,CC(CS)C(=O)NC(CC(N)=O)C(=O)O (stereo not drawn),181 °C
5,CSc1ccc(C(CC2CCCO2)C(=O)O)cc1 (stereo not drawn),105 to 107 °C
6,CCNC1CC=C(c2c[nH]c3ccc([N+](=O)[O-])cc23)CC1 (stereo not drawn),177 to 179 °C
7,CCCc1cccc(CNC(=O)c2nc3scc(COCc4ccc(C(=O)O)cc4)c3c(=O)[nH]2)c1,235 to 237 °C
8,Cc1nc2c(N)nc3ccccc3c2n1CCCNC(=O)OC(C)(C)C,112 to 115 °C
9,Cc1ccccc1OS(=O)(=O)c1ccc(N2CCN(C)C2=O)cc1,157 to 158 °C
10,O=S(=O)(NCCc1cccc(CCNS(=O)(=O)c2ccc(Cl)cc2)c1)c1ccc(Cl)cc1,135 to 136 °C
11,C=CCN1CC(c2ccc([N+](=O)[O-])cc2F)CCS1(=O)=O (stereo not drawn),121 °C
12,CC1=C(C(=O)OC(C)(C)C)C(c2ccccc2Br)C(C(=O)OC(C)(C)C)=C(C)N1,162 to 164 °C
13,O=c1ccoc2cc(O)ccc12,136 to 137 °C
14,Cc1ccc(C2COc3c(ccc(O)c3O)C2)cc1 (stereo not drawn),164 °C
15,CCOC(=O)C1(c2ccccc2)CCC=CC1Cl (stereo not drawn),137 to 139 °C
16,COC(=O)c1cc(-c2ccc(OC)c(Cl)c2)nn(CC=Cc2ccc(Cl)cc2)c1=O,180 to 182 °C
17,O=S1(=O)c2cccc3cccc(c23)N1CC(Br)CN1CCN(c2ccc(F)cc2)CC1 (stereo not drawn),102 °C
18,Cc1cccc(-c2c(CC(=O)Nc3ccc(F)cc3C(F)(F)F)c(=O)oc3cc4c(cc23)CCC4O)c1 (stereo not drawn),225 to 227 °C
19,O=S1(=O)N=CNc2ccc(F)cc21,260 to 263 °C
20,O=C(NC[C@@H]1CN2C(=O)C[C@H]2O1)c1cc(F)ccc1F (racemic),88.8 to 90.7 °C
21,CCOP(=O)(OCC)c1ccc2c(c1)[C@@H](n1ccccc1=O)[C@H](O)C(C)(C)O2 (relative stereo),130 °C
22,CCCC1=C(C(=O)OCC)C(c2ccoc2C)c2c[nH]nc2N1 (stereo not drawn),123 to 125 °C
23,CCOC(=O)c1cn(CC)c2nc(Cl)ncc2c1=O,156 °C
24,CCOP(=O)(CCN1CCC(N(CCCN)S(=O)(=O)c2ccc(Nc3nccc(Nc4ccc(F)cc4)n3)cc2)CC1)OCC,125 to 130 °C
25,Cc1nc2cc(C(=O)NC3CC3)c(NC(=O)c3cc(C(F)(F)F)nn3-c3ncccc3Cl)c(Cl)c2nc1C,255 to 258 °C
